Measured values from patent US20250361248A1, “PROTAC COMPOUND WITH CYCLOPHILIN A DEGRADATION ACTIVITY, PREPARATION METHOD THEREFOR, AND USE THEREOF” (priority 2022, published 2025).

What was measured:
[1] = test system: IL-1β, IL-6, TNF-α, and IFN-γ; set-up: species or system C57BL/6 mice; conditions: mouse, in vivo, 10 mg/kg/day
A549 cells [2] = test: Effect on A549 cell activity by CCK-8 method; assay type: cell-based; conditions: 0 to 10^5 nM, 12 hours
Procedure: (§1) (1) A549 cells in the logarithmic phase were collected, the concentration of the cell suspension was adjusted, and 100 uL was added per well. The cells to be tested were plated to a density of 10^3-10^4 cells/well and incubated at 37° C. under 5% CO2 until the bottom of the wells was covered by a single layer of cells.
(2) Different concentrations of the compound of Formula (I) were added: 0, 10, 10^2, 10^3, 10^4, and 10^5 nM/well, with 3 replicate wells set, and incubated at 37° C. under 5% CO2 for 12 hours.
• (1) 10 μL CCK8 reagent was added to the above cells in each well and reacted for 2 h. • (2) The incubation was terminated, and the culture medium in the wells was carefully aspirated. • (3) The absorbance of each well was measured using a microplate reader with a wavelength of 450 nm. • (4) The absorbance ratio between the experimental group and the control group was calculated as follows: Cell viability=(Absorbance of the experimental group−Blank control)÷(Absorbance of the control group−Blank control)×100%.

rheumatoid arthritis = test: Rat rheumatoid arthritis model (Freund complete adjuvant); assay type: in vivo, Lewise rats; conditions: 10 mg/kg tail vein three times/week
Procedure: The BCG vaccine was inactivated in a water bath at 80° C. for 1 h, ground thoroughly with incomplete Freund adjuvant, and mixed well to prepare 15 mg/mL Freund complete adjuvant (FCA). Lewise rats were divided into 4 groups: blank group (PBS), untreated group (UT), treatment group 1 (compound), and treatment group 2 (MTX (methotrexate)), with 5 rats in each group and a body weight of […]. Except for the PBS group, rats were intradermally injected with 0.1 mL of FCA in the right hind paw. On day 14 after injection, rats in treatment group 1 (compound) were injected with the compound (10 mg/kg of body weight, dissolved in 100 μL of PBS) through the tail vein three times/week: rats in treatment group 2 (MTX (methotrexate)) were intraperitoneally injected with methotrexate (1.2 mg/kg of body weight) three times/week.
The circumference of the metatarsophalangeal joint was measured. The circumference of the ankle joint of the left hind paw (on the secondary lesion side) of all rats was measured once before modeling, before administration, and 3 weeks after administration, respectively, and the percentage of joint swelling was calculated.
The joint index was determined by joint swelling score before administration (Day 0) and 3 weeks after administration. Scoring was carried out based on the redness and swelling degree of the ankle and toe joints of the front and rear limbs of rats and the affected joint index, as follows: 0 for normal; 1 for the redness and swelling of one joint; 2 for the redness and swelling of two or more joints; 3 for severe redness and swelling of the paw below the ankle joint; 4 for the redness and swelling of the entire paw including the ankle joint and inability to bear weight. The limbs were scored separately; and the cumulative sum of the scores was the joint index.
(1) On the day 21 of administration, rats were euthanized after blood collection. […]
(2) Joint synovial proliferation and the degree of sub-synovial inflammation were observed under a light microscope, and synovial cell proliferation was scored.

[3] = test system: IBV-/Guangxi-Jiangzhou/1352/2018; test: IBV-induced pneumonia mouse model: lung index, lung pathology and pathological scores; set-up: species or system C57BL/6 mice; conditions: in vivo
A549 cells [4] = test: Migration and infiltration of lung cancer cells, Transwell chambers; assay type: cell-based
Procedure: as §1, with “10^3 to 10^4” for “10^3-10^4”
(2) Different concentrations of the compound represented by Formula I were added: 0, 10, 10^2, 10^3, 10^4, and 10^5 nM/well, with 3 replicate wells set, and incubated at 37° C. under 5% CO2 for 12 hours.
The upper chamber of a 24-well cell culture insert ([…] pore size) was coated (no migration) or (invasive) with a matrix (1 mg/mL) and dried at 37° C. for 30 min.
(3) A549/WT and A549/CypA-cells were trypsinized, washed, and suspended in serum-free DMEM after treatment with 20 ng/ml TGF-β for 48 h.
(1) DMEM containing 10% fetal bovine serum was added to the lower chamber per approximately 5×10^4 cells inserted in the upper chamber.
(2) After incubation for 6 h (migration) or 24 h (invasion), non-migrating or […] cells residing on the upper part of the insert membrane were removed with a cotton swab.
(3) The cells that migrated to the underside of the membrane were fixed and stained with 2% crystal violet in ethanol.
(4) The stained cells were observed and counted under a Japan Olympus CKX41 microscope.

CypA [5] = biological target: T1, CypA (Homo sapiens, UniProt P62937); test: CypA degradation in A549 cells by Western Blot; assay type: cell-based; conditions: A549 cell line, 12 hours
T1 construct: A549 cells in the logarithmic phase were collected; endogenous in cells; host or cells: A549
T1 sequence (P62937 whole entry): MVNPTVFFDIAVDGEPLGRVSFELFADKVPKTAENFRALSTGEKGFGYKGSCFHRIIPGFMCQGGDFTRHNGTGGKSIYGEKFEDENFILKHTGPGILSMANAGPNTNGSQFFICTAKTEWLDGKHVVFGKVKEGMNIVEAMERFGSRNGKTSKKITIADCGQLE
Procedure: as §1
(2) Different concentrations of the compound of Formula I were added: 0, 10, 10^2, 10^3, 10^4, and 10^5 nM/well, with 3 replicate wells set, and incubated at 37° C. under 5% CO2 for 12 hours.
(1) The treated cells were scraped off from the culture medium, suspended thoroughly, and then collected by centrifugation at 300 g for 5 minutes. After washing with PBS once, the PBS was discarded. […]
(3) The specific steps for Western Blot (WB) detection were as follows: • 1) An appropriate concentration of SDS-PAGE gel was prepared: the concentration of a separating gel of 10% and the concentration of a stacking gel of 5%. • 2) Sample preparation: protein samples were prepared according to experimental requirements, centrifuged, mixed well, and loaded into the loading wells of SDS-PAGE gel. The loading volume was adjusted appropriately according to the protein quantification results. • 3) Electrophoresis: the power was turned on, and the protein samples were run at 80 volts in the stacking gel. […]

CypA [6] = biological target: CypA (Mus musculus, UniProt P17742); assay type: in vivo, C57BL/6 mice; conditions: 10 mg/kg of body weight/day from 24 h after IBV infection, 7 days after infection
Chain of CypA (Mus musculus, UniProt P17742) (P17742 whole entry): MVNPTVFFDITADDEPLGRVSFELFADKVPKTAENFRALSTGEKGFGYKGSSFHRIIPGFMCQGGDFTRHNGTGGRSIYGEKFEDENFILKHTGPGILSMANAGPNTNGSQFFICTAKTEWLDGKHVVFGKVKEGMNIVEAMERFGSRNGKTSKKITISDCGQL

For `Cc1ncsc1-c1ccc(CNC(=O)[C@@H]2C[C@@H](O[Si](C)(C)C(C)(C)C)CN2C(=O)[C@@H](NC(=O)COCCCCOCCCCOc2cccc(O)c2C(=O)NC(=O)NC2CCCCC2)C(C)(C)C)cc1` [Formula I], the “expression of IFN-γ in the lung tissue” value [1] was “significantly reduce”, the “expression of IL-1β in the lung tissue” value [1] was “significantly reduce” and the “expression of IL-6 in the lung tissue” value [1] was “significantly reduce”. For the same compound, the “expression of TNF-α in the lung tissue” value [1] was “significantly reduce”, the cell viability (A549 cells [2]) was “above 80%” and the “joint index of the ankle joint” value (rheumatoid arthritis; 3 weeks after administration) was “reduce the joint index”. For the same compound, the joint swelling (rheumatoid arthritis; 3 weeks after administration) was “significantly relieve joint swelling”, the “inflammation of the ankle joint (ankle pathological scores, HE)” value (rheumatoid arthritis; day 21 of administration) was “alleviate the inflammation” and the “lung injury (lung index, pathology, pathological scores)” value [3] was “significantly alleviate lung injury”. The “infiltration of lung cancer cells” value (A549 cells [4]; A549, Transwell with matrix, 24 h) was “significantly reduce”, the “migration of lung cancer cells” value (A549 cells [4]; A549, Transwell, 6 h) was “significantly reduce” and the DC50 (CypA [5]; WB grayscale analysis, read-out: half-degradation concentration on CypA) was less than 100 nM. The “degradation effect on CypA protein” value (CypA [5]; WB, 0 to 10^5 nM) was “could be clearly observed” and the “expression of CypA in mouse lung tissue” value (CypA [6]) was “significantly reduce”.
